No end group written: not given here.
Experiments:
ACE [1] = target: T1, ACE (Oryctolagus cuniculus, UniProt P12822); assay: ACE pre-incubation of milk hydrolysate peptide libraries, stable-isotope dimethyl labeling and LC-MS/MS (D/H ratio); type: in vitro ADME, rabbit; set-up: ACE (EC 3.4.15.1, 1 unit) from rabbit lungs; purchased Sigma Chemical Co. (St. Louis, MO, USA); host or cells: rabbit lungs (tissue-derived enzyme); settings: milk hydrolysate peptide library (<3 kDa); ACE-treated (0.05 mU/μL ACE, borate buffer, 37 °C, 3 h: 1.5 h static + 1.5 h 200 rpm; D-labeled) versus untreated (H-labeled) peptide; intensity ratio in LC-MS; <1 = hydrolysed by ACE
T1 sequence (P12822 34-1310): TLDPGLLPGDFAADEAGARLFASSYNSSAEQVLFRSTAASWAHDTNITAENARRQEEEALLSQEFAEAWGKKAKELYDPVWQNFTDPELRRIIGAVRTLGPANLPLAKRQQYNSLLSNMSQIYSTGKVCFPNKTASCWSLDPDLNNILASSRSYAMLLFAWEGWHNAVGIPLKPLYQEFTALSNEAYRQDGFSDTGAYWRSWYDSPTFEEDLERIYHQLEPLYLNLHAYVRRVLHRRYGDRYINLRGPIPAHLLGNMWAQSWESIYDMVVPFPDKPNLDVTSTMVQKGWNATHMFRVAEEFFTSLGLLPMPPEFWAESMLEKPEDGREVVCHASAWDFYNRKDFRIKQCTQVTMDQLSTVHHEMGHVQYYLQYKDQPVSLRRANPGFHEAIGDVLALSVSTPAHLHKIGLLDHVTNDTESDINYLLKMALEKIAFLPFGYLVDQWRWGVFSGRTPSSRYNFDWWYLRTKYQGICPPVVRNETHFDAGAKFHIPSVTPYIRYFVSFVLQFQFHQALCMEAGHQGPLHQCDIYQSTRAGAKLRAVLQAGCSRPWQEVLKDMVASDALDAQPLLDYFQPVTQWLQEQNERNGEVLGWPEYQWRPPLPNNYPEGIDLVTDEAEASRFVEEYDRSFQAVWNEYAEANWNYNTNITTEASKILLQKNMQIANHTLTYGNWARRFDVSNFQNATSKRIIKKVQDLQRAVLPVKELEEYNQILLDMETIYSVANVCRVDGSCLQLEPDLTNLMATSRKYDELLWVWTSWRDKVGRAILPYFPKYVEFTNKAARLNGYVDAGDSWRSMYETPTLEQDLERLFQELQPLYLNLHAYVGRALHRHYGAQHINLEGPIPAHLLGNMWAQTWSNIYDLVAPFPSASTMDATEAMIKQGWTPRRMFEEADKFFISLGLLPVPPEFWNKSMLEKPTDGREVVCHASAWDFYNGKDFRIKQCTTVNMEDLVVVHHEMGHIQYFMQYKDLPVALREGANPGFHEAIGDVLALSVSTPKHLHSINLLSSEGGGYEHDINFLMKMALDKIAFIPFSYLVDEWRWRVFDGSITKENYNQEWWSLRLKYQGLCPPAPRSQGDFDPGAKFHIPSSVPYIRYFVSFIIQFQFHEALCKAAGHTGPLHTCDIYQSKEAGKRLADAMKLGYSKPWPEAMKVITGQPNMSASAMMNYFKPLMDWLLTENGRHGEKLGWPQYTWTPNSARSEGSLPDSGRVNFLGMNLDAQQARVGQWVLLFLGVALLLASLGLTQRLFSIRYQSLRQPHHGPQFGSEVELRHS
Protocol: The peptide libraries (200 μg) dissolved in borate buffer were equally divided into two parts, one was without any treatment (control group); the other part (experimental group) was incubated with 0.05 mU/μL ACE at 37℃ for 1.5 h statically, followed by gentle shaking at 200 rpm for another 1.5 h, and then the ACE reaction was quenched using 60 μL of 1N HCl. After lyophilization, both samples were redissolved in 100 μL of 0.1M sodium acetate and modified using stable-isotope dimethyl labeling according to the previous study with slight modifications. Briefly, the control group (without ACE incubation) had 4 μL of formaldehyde (37% solution in H2O) and 1 M NaBH3CN (10 μL) added to it; the experimental group had 20% formaldehyde-d2 (8 μL) and 1M NaBH3CN (10 μL) added to it. After 1h, 5 μL of ammonia (28% solution in H2O) were added individually to both groups to stop the reaction. The experimental group and the control group were combined and desalted using the PepClean™C18 spin column. The resulting peptide mixture was lyophilized and kept at −20 °C prior to LC-MS/MS analysis. Formaldehyde is known to the state of California to cause cancer; special caution was taken including the use of surgical gloves and a fume hood when formaldehyde was handled.
The combined mixture re-dissolved in 5% ACN containing 0.1% formic acid was separated using an Ultimate 3000 RSLC system (Dionex, Sunnyvale, CA, USA) coupled with a C18 column (Acclaim PepMap RSLC, 75 μm × 150 mm, Thermo Scientific, Waltham, Middlesex, MA, USA) and analyzed with a Thermo Q-ExactiveTM mass spectrometer (Thermo Scientific Inc., Waltham, Middlesex, MA, USA). The elution solution was composed of mobile phase A (0.1% formic acid in water) and B (0.1% formic acid in 95% acetonitrile). The elution gradient was arranged as follows: (i) isocratic elution using 1% B in the first 5.5 min for sample loading, (ii) linear gradient from 1% to 60% B in the next 39.5 min, (iii) linear gradient from 60% to 80% B in the following 10 min, and finally (iv) isocratic elution using 1% solution B for 10 min. The flow rate applied in the LC separation was maintained at 250 µL/min. The separated peptides were analyzed and quantified using Q-ExactiveTM mass spectrometry which was operated in the data-dependent mode and switched automatically between MS and HCD-MS2. A full MS scan was carried out in a 100 and 1500 m/z range, and the 14 ions of the highest intensities were selected for MS/MS scans. The RAW data were converted to the MGF file format followed by database-assisted sequencing with PEAKS DB using PEAKS Studio X (Bioinformatics Solutions Inc., Waterloo, ON, Canada). The parameters used for peptide identification were listed as follows: (1) Database: UniProt_SwissProt (Bos taurus); (2) Enzyme: pepsin, trypsin, α-chymotrypsin, or GI (the combination of these three proteases); (3) Type of enzyme: Unspecific; (4) Instrument: Orbitrap; (5) Parent mass error tolerance: 20 ppm; (6) Fragment mass error tolerance: 0.6 Da; (7) Variable modifications: Dimethyl (K), Dimethyl (N-term), Dimethyl:2H(4) (K), and Dimethyl:2H(4) (N-term) were used for identification and quantitative analysis. The sequence identified through the database was validated by manually matching with the MS/MS spectrum in the raw data. In addition to MS/MS analysis coupled with PEAKS studio, the ACE’s substrate candidates were further confirmed using the synthetic peptides with corresponding sequences by comparison with their LC retention times, m/z values, and MS/MS spectra. The relative abundances of hydrogen (H) and deuterium (D) labeled peptides were quantified based on the peak areas in their corresponding selective ion chromatograms (SIC). The D/H ratio of identified peptide with the same sequence was further examined by their relative signal intensities in MS spectrum. Theoretically, the D/H ratio of the isobaric pair should stay at 1 if the peptide will not react with ACE. […]

ACE [2] = target: T1, ACE; assay: ACE hydrolysis of synthetic substrate candidates monitored by LC-MS at different incubation times; type: in vitro ADME, rabbit; set-up: ACE (EC 3.4.15.1, 1 unit) from rabbit lungs; purchased Sigma Chemical Co. (St. Louis, MO, USA); host or cells: rabbit lungs (tissue-derived enzyme); settings: synthetic peptide incubated with ACE, 37 °C, 3 h, LC-MS/MS
Protocol: To confirm the reactivity of the identified peptide candidates towards ACE, the synthetic peptides were individually mixed with ACE and incubated at 37 °C for 3 h. The remaining peptide substrate and the resulting product were analyzed using LC-MS/MS. Meanwhile, the degradation rate of each peptide was monitored every 30 min using LC-MS. The percentage of the remaining substrate (RS%) at each time point was calculated as As/(As + Ap) 100%. In which, As is the selective ion chromatogram (SIC) peak area of remaining substrate and Ap is the peak area of the resulting product. The RS% was further compared with the D/H ratio obtained in Section 2.4.

ACE [3] = target: T1, ACE; settings: pH 8.3
Protocol: To a mixture of Ang-I (1 μg) and peptide substrate (1 μg) in 50 µL of borate buffe (200 mM borate buffer, 300 mM NaCl, pH 8.3), 20 µL of ACE (0.05 mU/µL) was added. The mixture was incubated at 37 °C and monitored using LC-MS/MS at 1, 2, 3, 4, 6, and 10 h. The LC separation was performed on Syncronis C18 column (150 mm × 2.1 mm, 5 µm, Thermo Scientific) and eluted with the mobile phase A (5% ACN and 0.1% FA) and B (95% ACN and 0.1% FA) at a flow rate of 350 µL/min. The elution gradient was programmed as (i) 0–5 min, isocratic elution with 5% B; (ii) 5–20 min, linear gradient from 5% to 55% B; (iii) 20–22 min, linear gradient from 55% to 80% solution B; and finally (iv) 22–30 min, isocratic elution maintained at 80% solution B. The degradation of Ang-I and the formation of Ang-II were analyzed using selective ion chromatogram (SIC) on a triple quadrupole mass analyzer (TSQ, Thermo Scientific). The percentage of the remaining angiotensin I (RA%) at each time point was calculated as AI/(AI + AII) × 100%, where AI is the SIC peak area of remaining Ang-I and AII is the peak area of the resulting Ang-II.

ACE [4] = settings: 3 h of incubation with ACE; ref 21 (Forghani et al.); cited from earlier work
Protocol: To investigate the sequence conservation of the exogenous substrates, the identified substrates listed on Table 1 were analyzed using Weblogo (https://weblogo.berkeley.edu/). WebLogo is the software designed to analyze the frequency of residues that appeared at various positions in a sequence library. The font size of each letter (residue) represents the frequency appearance of each residue at a certain position. The order from the most frequent to the least frequent is arranged from the top to the bottom for each residue. The chemical properties of amino acid residues are classified by ...

ALNEINQFY [ALNEINQFY]
D/H Ratio (ACE [1]): 0.84

IPPLTQT [IPPLTQT]
D/H Ratio (ACE [1]): 0.47

HQPHQPLPPTVM [HQPHQPLPPTVM]
D/H Ratio (ACE [1]): 0.40

VRSPAQILQ [VRSPAQILQ]
Hydrolysis of synthetic peptide by ACE (result in words) (ACE [2]): survive from ACE’s hydrolysis

SAYPGQITSN [SAYPGQITSN]
D/H Ratio (ACE [1]): 0.65

DMPIQAF [DMPIQAF]
D/H Ratio (ACE [1]): 0.55

DRVYIHPFHL [Ang-I, angiotensin I, reference compound]
Hydrolysis of Ang-I by ACE without exogenous substrates (ACE [3]): hydrolyzed almost completely

SRYPSYGLN [SRYPSYGLN]
D/H Ratio (ACE [1]): 0.81

FPQYLQY [FPQYLQY]
D/H Ratio (ACE [1]): 0.12

LVYPFPGPLHNSL [LVYPFPGPLHNSL]
Hydrolysis of synthetic peptide by ACE (result in words) (ACE [2]): readily hydrolyzed by ACE

VVPPFLQPEVM [VVPPFLQPEVM]
D/H Ratio (ACE [1]): 0.80

ALPMHIR [ALPMHIR]
D/H Ratio (ACE [1]): 0.15

LYQGPIVL [LYQGPIVL]
Hydrolysis of synthetic peptide by ACE (result in words) (ACE [2]): survive from ACE’s hydrolysis

LRPVAAEIY [LRPVAAEIY]
D/H Ratio (ACE [1]): 0.65

QVSLNSGY [QVSLNSGY]
D/H Ratio (ACE [1]): 0.56

YPVEPFTESQSL [YPVEPFTESQSL]
D/H Ratio (ACE [1]): 0.76

DMPIQAFL [DMPIQAFL]
D/H Ratio (ACE [1]): 0.59

INNQFLPYPYY [INNQFLPYPYY]
D/H Ratio (ACE [1]): 0.33

CRQNTLGHNTQTSIAQ
peptide loss on incubation with ACE (ACE [4]): 7%

HPHPHLSF [HPHPHLSF]
D/H Ratio (ACE [1]): 0.15

MFPPQSVL [MFPPQSVL]
D/H Ratio (ACE [1]): 0.21

TTMPLW [TTMPLW]
D/H Ratio (ACE [1]): 0.15

QLDAYPSGAW [QLDAYPSGAW]
D/H Ratio (ACE [1]): 0.47

KVIPYVRY [KVIPYVRY]
D/H Ratio (ACE [1]): 0.66

NAVPITPTLNR [NAVPITPTLNR]
D/H Ratio (ACE [1]): 0.61

NIPPLTQTPV [NV-10]
Hydrolysis of synthetic peptide by ACE (result in words) (ACE [2]): avoid ACE’s hydrolysis

FALPQYLK [FALPQYLK]
D/H Ratio (ACE [1]): 0.94

SIVHPSY [SIVHPSY]
D/H Ratio (ACE [1]): 0.18

VAPFPEVFG [VAPFPEVFG]
D/H Ratio (ACE [1]): 0.83

HQGLPQEVLNENLLR [HQGLPQEVLNENLLR]
D/H Ratio (ACE [1]): 0.76

LVYPFPGPIHN [LVYPFPGPIHN]
Hydrolysis of synthetic peptide by ACE (result in words) (ACE [2]): retard the second cleavage

IASGEPTSTPTTE [IE-13]
Hydrolysis of synthetic peptide by ACE (result in words) (ACE [2]): avoid ACE’s hydrolysis

AVPYPQR [AVPYPQR]
D/H Ratio (ACE [1]): 0.44

— publication PMC9965520, “An Efficient Peptidomics Screening for Exogenous Substrates and Inhibitory Peptides of the Dipeptidase ACE from Milk Hydrolysate” (Pharmaceutics, 2023)
